Measurements from patent publication US8569292B2, “Cyclic inhibitors of 11β-hydroxysteroid dehydrogenase 1” (Vitae Pharmaceuticals, Inc., priority 2008, dated 2013).
pIC50: −log10 of the molar value.

Columns and labels:
11β-HSD1 [1] = molecular target: T1, 11β-HSD1 (Homo sapiens, UniProt P28845); assay: biochemical; conditions: for IC50: Biological Test Example 1 IC50 (nM); for inhibition at 0.1 µM: read-out: Average % inhibition at 100 nM
11β-HSD1 [2] = molecular target: T1, 11β-HSD1; assay: Biological Test Example 4: microsomal 11β-HSD1 in the presence of 50% human plasma; conditions: for Shift: IC50 in Test Example 4 divided by IC50 in Test Example 1
[3] = IC50 Range, Biological Test Example 1

T1 sequence (P28845 whole entry): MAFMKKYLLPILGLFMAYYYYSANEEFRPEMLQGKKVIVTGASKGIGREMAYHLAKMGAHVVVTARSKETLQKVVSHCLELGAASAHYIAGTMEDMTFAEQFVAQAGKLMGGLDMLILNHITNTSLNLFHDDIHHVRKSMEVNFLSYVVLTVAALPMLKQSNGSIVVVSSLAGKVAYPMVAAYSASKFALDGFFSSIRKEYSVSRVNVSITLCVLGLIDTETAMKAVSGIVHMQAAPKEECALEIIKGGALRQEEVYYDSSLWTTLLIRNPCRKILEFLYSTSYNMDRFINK

SMILES | IC50 (11β-HSD1 [1]) [nM] | pIC50 (11β-HSD1 [1]; [3]) | inhibition at 0.1 µM (11β-HSD1 [1]) [%] | pIC50 (11β-HSD1 [2]) | Shift (11β-HSD1 [2]) | inhibition at 0.111 µM (11β-HSD1 [1]; read-out: average % inhibition at 111 nM) [%] | pIC50 (11β-HSD1 [1])
C[C@@H](c1ccc(-c2ccc(C(=O)NC3CC3)cn2)cc1)N1CC[C@](CC(C)(C)C#N)(c2ccccc2)OC1=O [EXAMPLE 2, 6-(4-((S)-1-((R)-6-(2-cyano-2-methylpropyl)-2-oxo-6-phenyl-1,3-oxazinan-3-yl)ethyl)phenyl)-N-cyclopropylnicotinamide] | 0.8 | > 7.00 | 99 | 8.54 | 3.8 | – | –
C[C@@H](c1ccc(-c2ccc(C(C)(C)C)nn2)cc1)N1CC[C@](CC(C)(C)O)(c2ccccc2)OC1=O [EXAMPLE 6, (S)-3-((S)-1-(4-(6-tert-butylpyridazin-3-yl)phenyl)ethyl)-6-(2-hydroxy-2-methylpropyl)-6-phenyl-1,3-oxazinan-2-one] | 1 | > 7.00 | 96.3 | 8.07 | 8.4 | – | –
Cc1ncc(-c2ccc([C@H](C)N3CC[C@](CCc4nnc(C)o4)(c4ccccc4)OC3=O)cc2)cn1 [EXAMPLE 18, (R)-6-(2-(5-methyl-1,3,4-oxadiazol-2-yl)ethyl)-3-((S)-1-(4-(2-methylpyrimidin-5-yl)phenyl)ethyl)-6-phenyl-1,3-oxazinan-2-one] | > 100 | < 7.00 | 13.7 | – | – | – | –
C[C@@H](c1ccc(-c2ncc(C(=O)NC3CC3)s2)cc1)N1CC[C@](CC(C)(C)C#N)(c2ccccc2)OC1=O [EXAMPLE 21, 2-(4-((S)-1-((R)-6-(2-cyano-2-methylpropyl)-2-oxo-6-phenyl-1,3-oxazinan-3-yl)ethyl)phenyl)-N-cyclopropylthiazole-5-carboxamide] | 0.4 | > 7.00 | 99.2 | 8.47 | 7.8 | – | –
C[C@@H](c1ccc(-c2ncc(C(=O)NC(C)(C)C)s2)cc1)N1CC[C@](CC(C)(C)O)(c2ccccc2)OC1=O [EXAMPLE 23, N-tert-butyl-2-(4-((S)-1-((S)-6-(2-hydroxy-2-methylpropyl)-2-oxo-6-phenyl-1,3-oxazinan-3-yl)ethyl)phenyl)thiazole-5-carboxamide] | 2.7 | > 7.00 | 89.3 | 7.86 | 5.1 | – | –
C[C@@H](c1ccc(-c2ncc(C(=O)NC(C)(C)C)s2)cc1)N1CC[C@](CC(C)(C)C#N)(c2ccccc2)OC1=O [EXAMPLE 24, N-tert-butyl-2-(4-((S)-1-((R)-6-(2-cyano-2-methylpropyl)-2-oxo-6-phenyl-1,3-oxazinan-3-yl)ethyl)phenyl)thiazole-5-carboxamide] | 0.8 | > 7.00 | 96.9 | 8.36 | 5.2 | – | –
Cc1cn(-c2ncc(-c3ccc([C@H](C)N4CC[C@](CC(C)(C)O)(c5ccccc5)OC4=O)cc3)cn2)c(C)n1 [EXAMPLE 26, (S)-3-((S)-1-(4-(2-(2,4-dimethyl-1H-imidazol-1-yl)pyrimidin-5-yl)phenyl)ethyl)-6-(2-hydroxy-2-methylpropyl)-6-phenyl-1,3-oxazinan-2-one] | 1.7 | > 7.00 | 95.2 | 8.17 | 4.1 | – | –
Cc1nccn1-c1ncc(-c2ccc([C@H](C)N3CC[C@](CC(C)(C)O)(c4ccccc4)OC3=O)cc2)cn1 [EXAMPLE 27, (S)-6-(2-hydroxy-2-methylpropyl)-3-((S)-1-(4-(2-(2-methyl-1H-imidazol-1-yl)pyrimidin-5-yl)phenyl)ethyl)-6-phenyl-1,3-oxazinan-2-one] | 1.2 | > 7.00 | 96.8 | 8.33 | 3.8 | – | –
C[C@@H](c1ccc(-c2cccc(OC3CCCC3)n2)cc1)N1CC[C@](CC(C)(C)O)(c2ccccc2)OC1=O [EXAMPLE 28, (S)-3-((S)-1-(4-(6-(cyclopentyloxy)pyridin-2-yl)phenyl)ethyl)-6-(2-hydroxy-2-methylpropyl)-6-phenyl-1,3-oxazinan-2-one] | 1.4 | > 7.00 | 89.7 | 6.73 | 129.7 | – | –
C[C@@H](c1ccc(-c2ncc(C(C)(C)O)cn2)cc1)N1CC[C@](CC(C)(C)O)(c2ccccc2)OC1=O [EXAMPLE 29, (S)-6-(2-hydroxy-2-methylpropyl)-3-((S)-1-(4-(5-(2-hydroxypropan-2-yl)pyrimidin-2-yl)phenyl)ethyl)-6-phenyl-1,3-oxazinan-2-one] | 12.2 | > 7.00 | 83.8 | – | – | – | –
CC1(c2ccccc2)CCN(c2cccc(-c3ccncc3)c2)C(=O)O1 (stereo not drawn) [EXAMPLE 33, 6-methyl-6-phenyl-3-(3-(pyridin-4-yl)phenyl)-1,3-oxazinan-2-one] | 305 | 6.00 to 7.00 | – | – | – | 37.1 | –
C=CC[C@]1(c2ccc(F)cc2)CCN([C@@H](C)c2ccc(-c3nnc(C)s3)cc2)C(=O)O1 [EXAMPLE 39, (R)-6-allyl-6-(4-fluorophenyl)-3-((S)-1-(4-(5-methyl-1,3,4-thiadiazol-2-yl)phenyl)ethyl)-1,3-oxazinan-2-one] | 5.2 | > 7.00 | 73.6 | – | – | – | –
C=CC[C@]1(c2ccccc2)CCN([C@@H](C)c2ccc(-c3cncc(F)c3)cc2)C(=O)O1 [EXAMPLE 46, (R)-6-allyl-3-((S)-1-(4-(5-fluoropyridin-3-yl)phenyl)ethyl)-6-phenyl-1,3-oxazinan-2-one] | 0.8 | > 7.00 | 93.4 | – | – | – | –
C[C@@H](c1ccc(-c2ccc[n+]([O-])c2)cc1)N1CC[C@](CCC(N)=O)(c2ccccc2)OC1=O [EXAMPLE 50, 3-(4-((S)-1-((R)-6-(3-amino-3-oxopropyl)-2-oxo-6-phenyl-1,3-oxazinan-3-yl)ethyl)phenyl)pyridine 1-oxide] | 29.1 | – | 81.2 | – | – | – | > 7.00
C[C@@H](c1ccc(-c2ccc[n+]([O-])c2)cc1)N1CC[C@](CCC(N)=O)(c2ccc(F)cc2)OC1=O [EXAMPLE 68, 3-(4-((S)-1-((R)-6-(3-amino-3-oxopropyl)-6-(4-fluorophenyl)-2-oxo-1,3-oxazinan-3-yl)ethyl)phenyl)pyridine 1-oxide] | 85.1 | > 7.00 | 50 | – | – | – | –
C[C@@H](c1ccc(-c2cncc(F)c2)cc1)N1CC[C@](CCC(=O)O)(c2ccc(F)cc2)OC1=O [EXAMPLE 70, 3-((R)-6-(4-fluorophenyl)-3-((S)-1-(4-(5-fluoropyridin-3-yl)phenyl)ethyl)-2-oxo-1,3-oxazinan-6-yl)propanoic acid] | 99.6 | > 7.00 | 49.7 | – | – | – | –
C[C@@H](c1ccc(-c2cncc(C(N)=O)c2)cc1)N1CC[C@](CCCO)(c2ccc(F)cc2)OC1=O [EXAMPLE 71, 5-(4-((S)-1-((R)-6-(4-fluorophenyl)-6-(3-hydroxypropyl)-2-oxo-1,3-oxazinan-3-yl)ethyl)phenyl)nicotinamide] | 44.1 | > 7.00 | 68.7 | – | – | – | –
C[C@@H](c1ccc(-c2cncc(C(=O)N(C)C)c2)cc1)N1CC[C@](CCCO)(c2ccc(F)cc2)OC1=O [EXAMPLE 72, 5-(4-((S)-1-((R)-6-(4-fluorophenyl)-6-(3-hydroxypropyl)-2-oxo-1,3-oxazinan-3-yl)ethyl)phenyl)-N,N-dimethylnicotinamide] | 43.5 | > 7.00 | 64.8 | – | – | – | –
CNC(=O)c1cncc(-c2ccc([C@H](C)N3CC[C@](CCCO)(c4ccc(F)cc4)OC3=O)cc2)c1 [EXAMPLE 73, 5-(4-((S)-1-((R)-6-(4-fluorophenyl)-6-(3-hydroxypropyl)-2-oxo-1,3-oxazinan-3-yl)ethyl)phenyl)-N-methylnicotinamide] | 46.9 | > 7.00 | 65.3 | – | – | – | –
Cc1cc(-c2ccc([C@H](C)N3CC[C@](CCC(C)(C)O)(c4ccc(F)cc4)OC3=O)cc2)ccn1 [EXAMPLE 79, (R)-6-(4-fluorophenyl)-6-(3-hydroxy-3-methylbutyl)-3-((S)-1-(4-(2-methylpyridin-4-yl)phenyl)ethyl)-1,3-oxazinan-2-one] | 28.3 | > 7.00 | 76.9 | – | – | – | –
Cc1cc(-c2ccc([C@H](C)N3CC[C@](CCCO)(c4ccc(F)cc4)OC3=O)cc2)cc(C)n1 [EXAMPLE 81, (R)-3-((S)-1-(4-(2,6-dimethylpyridin-4-yl)phenyl)ethyl)-6-(4-fluorophenyl)-6-(3-hydroxypropyl)-1,3-oxazinan-2-one] | 0.6 | > 7.00 | 99.3 | – | – | – | –
Cc1cc(-c2ccc([C@H](C)N3CC[C@](CCCN4CCCC4=O)(c4ccccc4)OC3=O)cc2)ccn1 [EXAMPLE 104, (R)-3-((S)-1-(4-(2-methylpyridin-4-yl)phenyl)ethyl)-6-(3-(2-oxopyrrolidin-1-yl)propyl)-6-phenyl-1,3-oxazinan-2-one] | 9.2 | > 7.00 | 88 | – | – | – | –
C[C@@H](c1ccc(-c2ccc(OCC(C)(C)O)nc2)cc1)N1CC[C@](CC(C)(C)O)(c2ccccc2)OC1=O [EXAMPLE 198, (S)-3-((S)-1-(4-(6-(2-hydroxy-2-methylpropoxy)pyridin-3-yl)phenyl)ethyl)-6-(2-hydroxy-2-methylpropyl)-6-phenyl-1,3-oxazinan-2-one] | 1 | > 7.00 | 92.4 | – | – | – | –
CC(C)[C@@]1(CC(C)(C)O)CCN([C@@H](C)c2ccc(-c3cnc(C(=O)NC4CC4)nc3)cc2)C(=O)O1 [EXAMPLE 199, N-cyclopropyl-5-(4-((S)-1-((S)-6-(2-hydroxy-2-methylpropyl)-6-isopropyl-2-oxo-1,3-oxazinan-3-yl)ethyl)phenyl)pyrimidine-2-carboxamide] | 63.5 | > 7.00 | 62.9 | – | – | – | –
COc1cc(-c2ccc([C@H](C)N3CC[C@](CC(C)(C)O)(c4ccccc4)OC3=O)cc2)ccn1 [EXAMPLE 210, (S)-6-(2-hydroxy-2-methylpropyl)-3-((S)-1-(4-(2-methoxypyridin-4-yl)phenyl)ethyl)-6-phenyl-1,3-oxazinan-2-one] | 0.6 | > 7.00 | – | – | – | – | –
